Like-named read-outs stand apart in the source and are kept apart here.
Key:
[1] = assay type: physicochemical
Puccinia recondita = assay: In vivo preventive test on Puccinia recondita (brown rust on wheat); details: 500 ppm; wheat plants sprayed 24 hours before contamination; grading 10 days after contamination vs control plants
Procedure: Wheat plants (“Scipion” variety), sown in starter cups on a 50/50 peat soil-pozzolana substrate and grown at 22° C. (12 h)/20° C. (12 h), are treated at the 1-leaf stage (10 cm height) by spraying with the active ingredient prepared as described above. Plants, used as controls, are treated with the mixture of acetone/tween/DMSO/water not containing the active material. After 24 hours, the plants are contaminated by spraying the leaves with an aqueous suspension of Puccinia recondita spores (100 000 spores per ml).

Alternaria brassicae = assay: In vivo preventive test on Alternaria brassicae (leaf spot on radish); details: 500 ppm; radish plants sprayed 24 hours before contamination; grading 5 days after contamination vs control plants
Procedure: Radish plants (“Pernod Clair” variety), sown in starter cups on a 50/50 peat soil-pozzolana substrate and grown at 17° C., are treated at the 2-leaf stage by spraying with the active ingredient prepared as described above. Plants, used as controls, are treated with the mixture of acetone/tween/DMSO/water not containing the active material. After 24 hours, the plants are contaminated by spraying the leaves with an aqueous suspension of Alternaria brassicae spores (50 000 spores per ml). The spores are collected from a 15-day-old culture. […] Grading (% of efficacy) is carried out 5 days after the contamination, in comparison with the control plants.

Septoria tritici = assay: In vivo preventive test on Septoria tritici (leaf spot on wheat); details: 500 ppm; wheat plants sprayed 24 hours before contamination; grading 21 to 28 days after contamination vs control plants
Summary of the method: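 Scipion wheat at 1-leaf stage sprayed with compound, controls receiving acetone/tween/DMSO/water vehicle; 24 h later leaves inoculated with Septoria tritici spores (500 000 spores per ml). Efficacy (%) graded versus control plants 21 to 28 days after contamination.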

Botrytis cinerea = assay: In vivo preventive test on Botrytis cinerea (grey mould); details: 500 ppm; gherkin plants sprayed 24 hours before contamination; grading 4-5 days after contamination vs control plants
Summary of the method: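 Gherkin plants ("Vert petit de Paris") sprayed with compound at Z11 cotyledon stage, then inoculated 24 h later with B. cinerea spores (50 000/ml) in PDB/fructose/NH4NO3/KH2PO4 nutrient solution. Incubated at 17 °C, 80% RH; % efficacy versus solvent-treated controls graded 4–5 days after contamination.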

Sphaerotheca fuliginea = assay: In vivo preventive test on Sphaerotheca fuliginea (powdery mildew on cucurbits); details: 500 ppm; gherkin plants sprayed 24 hours before contamination; grading 12 days after contamination vs control plants
Summary of the method: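 Preventive spray of gherkin plants at Z11 cotyledon stage, grown at 24° C; inoculation 24 hours later with Sphaerotheca fuliginea spores (100 000 spores per ml). Efficacy graded 12 days post-inoculation as % versus solvent-treated control plants.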

Phytophthora infestans = assay type: in vivo; details: 500 ppm; tomato plants sprayed 24 hours before contamination; grading 5 days after contamination vs control plants
[2] = method [a]: HPLC/LC-MS on reversed phase at pH 2.7, 0.1% formic acid in water / acetonitrile, gradient 10% to 95% acetonitrile
[3] = HPLC on reversed phase columns, method [a]: pH 2.7, 0.1% formic acid in water / acetonitrile, linear gradient 10% to 95% acetonitrile
[4] = method [a]: HPLC/LC-MS on reversed phase at pH 2.7, 0.1% formic acid in water / acetonitrile, linear gradient 10% to 95% acetonitrile

Structure (SMILES): CC1(C(N)=O)CC(c2ccc3ncc(Br)cc3c2)=NO1 (racemic) [compound 380]
- log P [1, 2]: 1.82[a]
- % of efficacy (protection) (Puccinia recondita): 78%

Structure (SMILES): C#Cc1cnc2ccc(C3=NOC(C)(C(=O)NCC4OCCc5ccccc54)C3)cc2c1 (single isomer, unassigned) [compound 245]
- log P [1, 3]: 2.92^[a]
- % of efficacy (protection) (Alternaria brassicae): 94%
- % of efficacy (protection) (Septoria tritici): 71%

Structure (SMILES): Cc1cnc(CNC(=O)C2(C)CC(c3ccc4ncc(Br)cc4c3)=NO2)cn1 (centres unmarked) [compound 85]
- log P [1, 4]: 2.2^[a]
- % of efficacy (protection) (Alternaria brassicae): 96%
- % of efficacy (protection) (Septoria tritici): 75%

Structure (SMILES): C#Cc1cnc2ccc(C3=NOC(C)(C(=O)NCc4ccncc4)C3)cc2c1 (centres unmarked) [compound 99]
- log P [1, 4]: 1.2^[a]
- % of efficacy (protection) (Alternaria brassicae): 70%
- % of efficacy (protection) (Botrytis cinerea): 100%

Structure (SMILES): C#Cc1cnc2ccc(C3=NOC(C)(C(=O)NCc4cccs4)C3)cc2c1 (centres unmarked) [compound 162]
- log P [1, 4]: 2.73^[a]
- % of efficacy (protection) (Alternaria brassicae): 88%
- % of efficacy (protection) (Botrytis cinerea): 99%
- % of efficacy (protection) (Septoria tritici): 86%
- % of efficacy (protection) (Sphaerotheca fuliginea): 94%

Structure (SMILES): C#Cc1cnc2ccc(C3=NOC(C)(C(=O)NCc4ccc(C)o4)C3)cc2c1 (centres unmarked) [compound 163]
- log P [1, 4]: 2.8^[a]
- % of efficacy (protection) (Alternaria brassicae): 88%

Structure (SMILES): C#Cc1cnc2ccc(C3=NOC(C)(C(=O)NCc4ccco4)C3)cc2c1 (centres unmarked) [compound 164]
- log P [1, 4]: 2.51^[a]
- % of efficacy (protection) (Alternaria brassicae): 88%
- % of efficacy (protection) (Botrytis cinerea): 71%

Structure (SMILES): C#Cc1cnc2ccc(C3=NOC(C)(C(=O)NCc4noc(C)n4)C3)cc2c1 (centres unmarked) [compound 170]
- log P [1, 4]: 1.99^[a]
- % of efficacy (protection) (Alternaria brassicae): 81%
- % of efficacy (protection) (Botrytis cinerea): 100%
- % of efficacy (protection) (Septoria tritici): 71%

Structure (SMILES): Cc1nc(CNC(=O)C2(C)CC(c3ccc4ncc(Br)cc4c3)=NO2)no1 (centres unmarked) [compound 171]
- log P [1, 4]: 2.23^[a]
- % of efficacy (protection) (Alternaria brassicae): 75%
- % of efficacy (protection) (Septoria tritici): 71%

Structure (SMILES): C#Cc1cnc2ccc(C3=NOC(C)(C(=O)NCc4ccc(OC(F)(F)F)cc4)C3)cc2c1 (centres unmarked) [compound 173]
- log P [1, 4]: 3.53^[a]
- % of efficacy (protection) (Alternaria brassicae): 88%

Structure (SMILES): C#Cc1cnc2ccc(C3=NOC(C)(C(=O)NCc4cnn(C)c4C)C3)cc2c1 (centres unmarked) [compound 178]
- log P [1, 4]: 1.93^[a]
- % of efficacy (protection) (Alternaria brassicae): 75%
- % of efficacy (protection) (Botrytis cinerea): 100%
- % of efficacy (protection) (Septoria tritici): 100%

Structure (SMILES): C#Cc1cnc2ccc(C3=NOC(C)(C(=O)NCc4cnn(C)c4)C3)cc2c1 (centres unmarked) [compound 180]
- log P [1, 4]: 1.86^[a]
- % of efficacy (protection) (Alternaria brassicae): 75%
- % of efficacy (protection) (Botrytis cinerea): 95%
- % of efficacy (protection) (Phytophthora infestans): 86%
- % of efficacy (protection) (Septoria tritici): 100%
- % of efficacy (protection) (Sphaerotheca fuliginea): 98%

Structure (SMILES): C#Cc1cnc2ccc(C3=NOC(C)(C(=O)NCc4ccccc4Oc4ccccc4)C3)cc2c1 (centres unmarked) [compound 187]
- log P [1, 4]: 3.89^[a]
- % of efficacy (protection) (Alternaria brassicae): 88%

Structure (SMILES): CC1(C(=O)NCc2cccc(OC(F)(F)F)c2)CC(c2ccc3ncc(Br)cc3c2)=NO1 (centres unmarked) [compound 188]
- log P [1, 4]: 3.89^[a]
- % of efficacy (protection) (Alternaria brassicae): 88%

Structure (SMILES): C#Cc1cnc2ccc(C3=NOC(C)(C(=O)NCc4ccc5c(c4)OCCO5)C3)cc2c1 (centres unmarked) [compound 208]
- log P [1, 4]: 2.71^[a]
- % of efficacy (protection) (Alternaria brassicae): 88%

Structure (SMILES): C#Cc1cnc2ccc(C3=NOC(C)(C(=O)NCC4CCOC4)C3)cc2c1 (centres unmarked) [compound 214]
- log P [1, 4]: 1.98^[a]
- % of efficacy (protection) (Alternaria brassicae): 75%
- % of efficacy (protection) (Botrytis cinerea): 100%
- % of efficacy (protection) (Septoria tritici): 100%
- % of efficacy (protection) (Sphaerotheca fuliginea): 78%

Structure (SMILES): CC1(C(=O)NC2CC2C2CC2)CC(c2ccc3ncc(Br)cc3c2)=NO1 (centres unmarked) [compound 215]
- log P [1, 4]: 3.29^[a]
- % of efficacy (protection) (Alternaria brassicae): 75%
- % of efficacy (protection) (Botrytis cinerea): 87%
- % of efficacy (protection) (Septoria tritici): 86%

Structure (SMILES): C#Cc1cnc2ccc(C3=NOC(C)(C(=O)NCc4ccc5c(c4)OCC5)C3)cc2c1 (centres unmarked) [compound 220]
- log P [1, 4]: 2.82^[a]
- % of efficacy (protection) (Alternaria brassicae): 88%
- % of efficacy (protection) (Botrytis cinerea): 100%

Structure (SMILES): CC1(C(=O)NCC2(c3ccc(F)cc3)CC2)CC(c2ccc3ncc(Br)cc3c2)=NO1 (centres unmarked) [compound 221]
- log P [1, 4]: 3.81^[a]
- % of efficacy (protection) (Alternaria brassicae): 98%

Structure (SMILES): C#Cc1cnc2ccc(C3=NOC(C)(C(=O)NCc4ccc5[nH]c(C)cc5c4)C3)cc2c1 (centres unmarked) [compound 226]
- log P [1, 4]: 2.84^[a]
- % of efficacy (protection) (Alternaria brassicae): 81%

Structure (SMILES): C#Cc1cnc2ccc(C3=NOC(C)(C(=O)NCc4ccc5ncccc5c4)C3)cc2c1 (centres unmarked) [compound 227]
- log P [1, 4]: 1.59^[a]
- % of efficacy (protection) (Alternaria brassicae): 75%
- % of efficacy (protection) (Botrytis cinerea): 92%
- % of efficacy (protection) (Septoria tritici): 93%

Structure (SMILES): CC1(C(=O)NC2CCC2)CC(c2ccc3ncc(Br)cc3c2)=NO1 (centres unmarked) [compound 234]
- log P [1, 3]: 2.9^[a]
- % of efficacy (protection) (Alternaria brassicae): 75%
- % of efficacy (protection) (Botrytis cinerea): 99%
- % of efficacy (protection) (Septoria tritici): 86%
- % of efficacy (protection) (Sphaerotheca fuliginea): 94%

Structure (SMILES): CC1(C(=O)NCc2csc3ccc(Cl)cc23)CC(c2ccc3ncc(Br)cc3c2)=NO1 (centres unmarked) [compound 241]
- log P [1, 3]: 4.21^[a]
- % of efficacy (protection) (Alternaria brassicae): 81%

Structure (SMILES): C#Cc1cnc2ccc(C3=NOC(C)(C(=O)NCc4ccc5ccoc5c4)C3)cc2c1 (centres unmarked) [compound 242]
- log P [1, 3]: 3^[a]
- % of efficacy (protection) (Alternaria brassicae): 94%
- % of efficacy (protection) (Botrytis cinerea): 86%
- % of efficacy (protection) (Septoria tritici): 86%

Structure (SMILES): C#Cc1cnc2ccc(C3=NOC(C)(C(=O)NCc4csc5ccc(Cl)cc45)C3)cc2c1 (centres unmarked) [compound 244]
- log P [1, 3]: 3.74^[a]
- % of efficacy (protection) (Alternaria brassicae): 81%

Structure (SMILES): C#Cc1cnc2ccc(C3=NOC(C)(C(=O)NCC4CCCCC4)C3)cc2c1 (centres unmarked) [compound 246]
- log P [1, 3]: 3.55^[a]
- % of efficacy (protection) (Alternaria brassicae): 75%

Structure (SMILES): CC(C)NC(=O)C12OCCCC1C(c1ccc3ncc(Br)cc3c1)=NO2 (centres unmarked) [compound 273]
- log P [1, 3]: 2.90[a]
- % of efficacy (protection) (Alternaria brassicae): 75%

Structure (SMILES): CCn1cc(CNC(=O)C2(c3ccccc3)CC(c3ccc4ncc(Br)cc4c3)=NO2)c(C)n1 (centres unmarked) [compound 278]
- log P [1, 3]: 3.18[a]
- % of efficacy (protection) (Alternaria brassicae): 86%
- % of efficacy (protection) (Sphaerotheca fuliginea): 100%

Structure (SMILES): C#CC1(C(=O)NC(C)C)CC(c2ccc3ncc(Br)cc3c2)=NO1 (centres unmarked) [compound 402]
- log P [1, 2]: 2.92[a]
- % of efficacy (protection) (Alternaria brassicae): 71%
- % of efficacy (protection) (Botrytis cinerea): 99%
- % of efficacy (protection) (Septoria tritici): 100%

Structure (SMILES): C#Cc1cc2cc(C3=NOC(C)(C(=O)NCc4cn(CC)nc4C)C3)ccc2nc1Cl (centres unmarked) [compound 411]
- log P [1, 2]: 2.59[a]
- % of efficacy (protection) (Alternaria brassicae): 80%

Structure (SMILES): CCCOc1cnc2ccc(C3=NOC(C)(C(=O)NC(C)C)C3)cc2c1 (centres unmarked) [compound 412]
- log P [1, 2]: 2.16[a]
- % of efficacy (protection) (Alternaria brassicae): 70%

Structure (SMILES): CCOC1(C(=O)NC(C)C)CC(c2ccc3ncc(Br)cc3c2)=NO1 (centres unmarked) [compound 415]
- log P [1, 2]: 2.98[a]
- % of efficacy (protection) (Alternaria brassicae): 80%

Structure (SMILES): CC(C)NC(=O)C1(CC2CC2)CC(c2ccc3ncc(Br)cc3c2)=NO1 (centres unmarked) [compound 422]
- log P [1, 2]: 3.60[a]
- % of efficacy (protection) (Alternaria brassicae): 72%

From patent US9510598B2, “Nitrogen-containing heterocyclic compounds for plant disease control” (BAYER CROPSCIENCE AG, priority 2012, dated 2016)
